Tests used:
[1] = Laser flash photolysis: nucleophilic addition reaction rate constant and time constant with glutathione; type: physicochemical; conditions: pH 7.4, 10 mM sodium phosphate buffer, 295 K
Experimental: Change over time of transient absorption of the probe compounds of the present invention at various glutathione concentrations was measured using laser flash photolysis, and a nucleophilic addition reaction rate constant k and a nucleophilic addition reaction rime constant T in the nucleophilic addition-dissociation equilibrium reaction between glutathione and the probe compounds of the present invention were calculated. The solution conditions were […] aqueous solution and pH 7.4 (10 mM sodium phosphate buffer). A measurement condition was 295 K and a light source was a 10 mJ/pulse XeCl excimer laser ([…]).

[2] = Measurement of the fluorescence quantum yield; type: physicochemical; conditions: 1 μM probe, 1% DMSO aqueous solution, pH 7.4 (200 mM sodium phosphate buffer)
Experimental: Fluorescence quantum yield of the probe compounds according to the present invention was measured. The solution conditions were 1 μM probe compound, 1% DMSO aqueous solution, and pH 7.4 (200 mM sodium phosphate buffer).

With CC1(C)C2=C/C(=N/CCCC(=O)O)C=CC2=Cc2ccc(N)cc21 [Compound 32] the “k (nucleophilic addition reaction rate constant)” value ([1]; glutathione 0.1 mM) was 15.8 s⁻¹, the “τ (nucleophilic addition reaction time constant)” value ([1]; glutathione 0.1 mM) was 63.1 ms and the “k (nucleophilic addition reaction rate constant)” value ([1]; glutathione 0.5 mM) was 61.7 s⁻¹. For the same compound, the “τ (nucleophilic addition reaction time constant)” value ([1]; glutathione 0.5 mM) was 16.2 ms, the “k (nucleophilic addition reaction rate constant)” value ([1]; glutathione 1 mM) was 106 s⁻¹ and the “τ (nucleophilic addition reaction time constant)” value ([1]; glutathione 1 mM) was 9.45 ms. The “k (nucleophilic addition reaction rate constant)” value ([1]; glutathione 5 mM) was 592 s⁻¹, the “τ (nucleophilic addition reaction time constant)” value ([1]; glutathione 5 mM) was 1.69 ms and the “k (nucleophilic addition reaction rate constant)” value ([1]; glutathione 10 mM) was 1410 s⁻¹. For the same compound, the “τ (nucleophilic addition reaction time constant)” value ([1]; glutathione 10 mM) was 0.71 ms and the Fluorescence quantum yield [2] was 0.69.
CN(C)c1ccc2c(c1)[Si](C)(C)C1=C/C(=[N+](\C)CCCC(=O)NCCOCCOCCCCCCCl)C=CC1=C2 [Compound 16] gave a Fluorescence quantum yield [2] of 0.49.
For CN(C)c1ccc2c(c1)[Si](C)(C)C1=C/C(=[N+](\C)CCCC(=O)NCc3ccc(COc4nc(N)nc5[nH]cnc45)cc3)C=CC1=C2 [Compound 14], the Fluorescence quantum yield [2] was 0.27.
In the case of CC1(C)C2=CC(=N)C=CC2=Cc2ccc(N)cc21 [Compound 28], the “k (nucleophilic addition reaction rate constant)” value ([1]; glutathione 0.1 mM) was 21.1 s⁻¹, the “τ (nucleophilic addition reaction time constant)” value ([1]; glutathione 0.1 mM) was 47.5 ms and the “k (nucleophilic addition reaction rate constant)” value ([1]; glutathione 0.5 mM) was 195 s⁻¹. For the same compound, the “τ (nucleophilic addition reaction time constant)” value ([1]; glutathione 0.5 mM) was 5.12 ms, the “k (nucleophilic addition reaction rate constant)” value ([1]; glutathione 1 mM) was 371 s⁻¹ and the “τ (nucleophilic addition reaction time constant)” value ([1]; glutathione 1 mM) was 2.69 ms. For the same compound, the “k (nucleophilic addition reaction rate constant)” value ([1]; glutathione 5 mM) was 2170 s⁻¹, the “τ (nucleophilic addition reaction time constant)” value ([1]; glutathione 5 mM) was 0.46 ms and the “k (nucleophilic addition reaction rate constant)” value ([1]; glutathione 10 mM) was 5260 s⁻¹. For the same compound, the “τ (nucleophilic addition reaction time constant)” value ([1]; glutathione 10 mM) was 0.19 ms and the Fluorescence quantum yield [2] was 0.70.
CN(C)c1ccc2c(c1)[Si](C)(C)C1=C/C(=[N+](\C)CCCC(=O)ON3C(=O)CCC3=O)C=CC1=C2 [Compound 17] gave a Fluorescence quantum yield [2] of 0.46.
With C[Si]1(C)C2=CC(=N)C=CC2=C(c2ccccc2)c2ccc(N)cc21 [Compound 2] the “k (nucleophilic addition reaction rate constant)” value ([1]; glutathione 0.5 mM) was 1.21 s⁻¹, the “τ (nucleophilic addition reaction time constant)” value ([1]; glutathione 0.5 mM) was 823 ms and the “k (nucleophilic addition reaction rate constant)” value ([1]; glutathione 1 mM) was 2.05 s⁻¹. For the same compound, the “τ (nucleophilic addition reaction time constant)” value ([1]; glutathione 1 mM) was 487 ms, the “k (nucleophilic addition reaction rate constant)” value ([1]; glutathione 5 mM) was 11.0 s⁻¹ and the “τ (nucleophilic addition reaction time constant)” value ([1]; glutathione 5 mM) was 90.7 ms. For the same compound, the “k (nucleophilic addition reaction rate constant)” value ([1]; glutathione 10 mM) was 25.0 s⁻¹ and the “τ (nucleophilic addition reaction time constant)” value ([1]; glutathione 10 mM) was 40.1 ms.
In the case of CN(C)c1ccc2c(c1)[Si](C)(C)C1=C/C(=[N+](\C)CCCC(=O)O)C=CC1=C2 [Compound 12], the “k (nucleophilic addition reaction rate constant)” value ([1]; glutathione 0.1 mM) was 7.49 s⁻¹, the “τ (nucleophilic addition reaction time constant)” value ([1]; glutathione 0.1 mM) was 134 ms and the “k (nucleophilic addition reaction rate constant)” value ([1]; glutathione 0.5 mM) was 42.8 s⁻¹. The “τ (nucleophilic addition reaction time constant)” value ([1]; glutathione 0.5 mM) was 23.4 ms, the “k (nucleophilic addition reaction rate constant)” value ([1]; glutathione 1 mM) was 75.6 s⁻¹ and the “τ (nucleophilic addition reaction time constant)” value ([1]; glutathione 1 mM) was 13.2 ms. For the same compound, the “k (nucleophilic addition reaction rate constant)” value ([1]; glutathione 5 mM) was 444 s⁻¹, the “τ (nucleophilic addition reaction time constant)” value ([1]; glutathione 5 mM) was 2.25 ms and the “k (nucleophilic addition reaction rate constant)” value ([1]; glutathione 10 mM) was 1080 s⁻¹. For the same compound, the “τ (nucleophilic addition reaction time constant)” value ([1]; glutathione 10 mM) was 0.93 ms and the Fluorescence quantum yield [2] was 0.46.
For CN(C)c1ccc2c(c1)[Si](C)(C)C1=CC(=[N+](C)C)C=CC1=C2 [Compound 5], the “k (nucleophilic addition reaction rate constant)” value ([1]; glutathione 0.1 mM) was 14.3 s⁻¹, the “τ (nucleophilic addition reaction time constant)” value ([1]; glutathione 0.1 mM) was 69.9 ms and the “k (nucleophilic addition reaction rate constant)” value ([1]; glutathione 0.5 mM) was 95.8 s⁻¹. For the same compound, the “τ (nucleophilic addition reaction time constant)” value ([1]; glutathione 0.5 mM) was 10.4 ms, the “k (nucleophilic addition reaction rate constant)” value ([1]; glutathione 1 mM) was 176.2 s⁻¹ and the “τ (nucleophilic addition reaction time constant)” value ([1]; glutathione 1 mM) was 5.67 ms. The “k (nucleophilic addition reaction rate constant)” value ([1]; glutathione 5 mM) was 976 s⁻¹, the “τ (nucleophilic addition reaction time constant)” value ([1]; glutathione 5 mM) was 1.02 ms and the “k (nucleophilic addition reaction rate constant)” value ([1]; glutathione 10 mM) was 2290 s⁻¹. The “τ (nucleophilic addition reaction time constant)” value ([1]; glutathione 10 mM) was 0.436 ms and the Fluorescence quantum yield [2] was 0.39.
